Results from PMC10037152 (Plant Biotechnology Journal, 2023).

Tests used:
[1] = target: 3CL^pro of SARS-CoV-2 (Severe acute respiratory syndrome coronavirus 2, UniProt P0DTD1); assay: Inhibition activity against 3CLpro by fluorescence resonance energy transfer; format: biochemical; conditions: read-out: IC50 against 3CL^pro; n = 3
[2] = target: PL^pro of SARS-CoV-2 (Severe acute respiratory syndrome coronavirus 2, UniProt P0DTD1); assay: Inhibition activity against PLpro by fluorescence resonance energy transfer; format: biochemical; conditions: read-out: IC50 against PL^pro; n = 3

Molecule `CC1(C)CC[C@]2(C(=O)O)CC[C@]3(C)C(=CC[C@@H]4[C@@]5(C)CC[C@H](O[C@@H]6O[C@H](CO)[C@@H](O)[C@H](O)[C@H]6O)C(C)(C)C5CC[C@]43C)[C@H]2C1` (some centres unmarked) [Compound 34, oleanolic acid‐3‐O‐glucoside] has an IC50 [1] of 5.95 µM and an IC50 [2] of 7.57 µM.
